Data published in ChEMBL document CHEMBL3407334, “Synthesis of novel inhibitors of α-glucosidase based on the benzothiazole skeleton containing benzohydrazide moiety and their molecular docking studies” (Eur J Med Chem, 2015).

target: Maltase-glucoamylase (Homo sapiens, UniProt O43451); test: Inhibition of alpha-glucosidase (unknown origin) using pNPG substrate incubated for 15 mins by microplate reader based method
Sequence (O43451 whole entry): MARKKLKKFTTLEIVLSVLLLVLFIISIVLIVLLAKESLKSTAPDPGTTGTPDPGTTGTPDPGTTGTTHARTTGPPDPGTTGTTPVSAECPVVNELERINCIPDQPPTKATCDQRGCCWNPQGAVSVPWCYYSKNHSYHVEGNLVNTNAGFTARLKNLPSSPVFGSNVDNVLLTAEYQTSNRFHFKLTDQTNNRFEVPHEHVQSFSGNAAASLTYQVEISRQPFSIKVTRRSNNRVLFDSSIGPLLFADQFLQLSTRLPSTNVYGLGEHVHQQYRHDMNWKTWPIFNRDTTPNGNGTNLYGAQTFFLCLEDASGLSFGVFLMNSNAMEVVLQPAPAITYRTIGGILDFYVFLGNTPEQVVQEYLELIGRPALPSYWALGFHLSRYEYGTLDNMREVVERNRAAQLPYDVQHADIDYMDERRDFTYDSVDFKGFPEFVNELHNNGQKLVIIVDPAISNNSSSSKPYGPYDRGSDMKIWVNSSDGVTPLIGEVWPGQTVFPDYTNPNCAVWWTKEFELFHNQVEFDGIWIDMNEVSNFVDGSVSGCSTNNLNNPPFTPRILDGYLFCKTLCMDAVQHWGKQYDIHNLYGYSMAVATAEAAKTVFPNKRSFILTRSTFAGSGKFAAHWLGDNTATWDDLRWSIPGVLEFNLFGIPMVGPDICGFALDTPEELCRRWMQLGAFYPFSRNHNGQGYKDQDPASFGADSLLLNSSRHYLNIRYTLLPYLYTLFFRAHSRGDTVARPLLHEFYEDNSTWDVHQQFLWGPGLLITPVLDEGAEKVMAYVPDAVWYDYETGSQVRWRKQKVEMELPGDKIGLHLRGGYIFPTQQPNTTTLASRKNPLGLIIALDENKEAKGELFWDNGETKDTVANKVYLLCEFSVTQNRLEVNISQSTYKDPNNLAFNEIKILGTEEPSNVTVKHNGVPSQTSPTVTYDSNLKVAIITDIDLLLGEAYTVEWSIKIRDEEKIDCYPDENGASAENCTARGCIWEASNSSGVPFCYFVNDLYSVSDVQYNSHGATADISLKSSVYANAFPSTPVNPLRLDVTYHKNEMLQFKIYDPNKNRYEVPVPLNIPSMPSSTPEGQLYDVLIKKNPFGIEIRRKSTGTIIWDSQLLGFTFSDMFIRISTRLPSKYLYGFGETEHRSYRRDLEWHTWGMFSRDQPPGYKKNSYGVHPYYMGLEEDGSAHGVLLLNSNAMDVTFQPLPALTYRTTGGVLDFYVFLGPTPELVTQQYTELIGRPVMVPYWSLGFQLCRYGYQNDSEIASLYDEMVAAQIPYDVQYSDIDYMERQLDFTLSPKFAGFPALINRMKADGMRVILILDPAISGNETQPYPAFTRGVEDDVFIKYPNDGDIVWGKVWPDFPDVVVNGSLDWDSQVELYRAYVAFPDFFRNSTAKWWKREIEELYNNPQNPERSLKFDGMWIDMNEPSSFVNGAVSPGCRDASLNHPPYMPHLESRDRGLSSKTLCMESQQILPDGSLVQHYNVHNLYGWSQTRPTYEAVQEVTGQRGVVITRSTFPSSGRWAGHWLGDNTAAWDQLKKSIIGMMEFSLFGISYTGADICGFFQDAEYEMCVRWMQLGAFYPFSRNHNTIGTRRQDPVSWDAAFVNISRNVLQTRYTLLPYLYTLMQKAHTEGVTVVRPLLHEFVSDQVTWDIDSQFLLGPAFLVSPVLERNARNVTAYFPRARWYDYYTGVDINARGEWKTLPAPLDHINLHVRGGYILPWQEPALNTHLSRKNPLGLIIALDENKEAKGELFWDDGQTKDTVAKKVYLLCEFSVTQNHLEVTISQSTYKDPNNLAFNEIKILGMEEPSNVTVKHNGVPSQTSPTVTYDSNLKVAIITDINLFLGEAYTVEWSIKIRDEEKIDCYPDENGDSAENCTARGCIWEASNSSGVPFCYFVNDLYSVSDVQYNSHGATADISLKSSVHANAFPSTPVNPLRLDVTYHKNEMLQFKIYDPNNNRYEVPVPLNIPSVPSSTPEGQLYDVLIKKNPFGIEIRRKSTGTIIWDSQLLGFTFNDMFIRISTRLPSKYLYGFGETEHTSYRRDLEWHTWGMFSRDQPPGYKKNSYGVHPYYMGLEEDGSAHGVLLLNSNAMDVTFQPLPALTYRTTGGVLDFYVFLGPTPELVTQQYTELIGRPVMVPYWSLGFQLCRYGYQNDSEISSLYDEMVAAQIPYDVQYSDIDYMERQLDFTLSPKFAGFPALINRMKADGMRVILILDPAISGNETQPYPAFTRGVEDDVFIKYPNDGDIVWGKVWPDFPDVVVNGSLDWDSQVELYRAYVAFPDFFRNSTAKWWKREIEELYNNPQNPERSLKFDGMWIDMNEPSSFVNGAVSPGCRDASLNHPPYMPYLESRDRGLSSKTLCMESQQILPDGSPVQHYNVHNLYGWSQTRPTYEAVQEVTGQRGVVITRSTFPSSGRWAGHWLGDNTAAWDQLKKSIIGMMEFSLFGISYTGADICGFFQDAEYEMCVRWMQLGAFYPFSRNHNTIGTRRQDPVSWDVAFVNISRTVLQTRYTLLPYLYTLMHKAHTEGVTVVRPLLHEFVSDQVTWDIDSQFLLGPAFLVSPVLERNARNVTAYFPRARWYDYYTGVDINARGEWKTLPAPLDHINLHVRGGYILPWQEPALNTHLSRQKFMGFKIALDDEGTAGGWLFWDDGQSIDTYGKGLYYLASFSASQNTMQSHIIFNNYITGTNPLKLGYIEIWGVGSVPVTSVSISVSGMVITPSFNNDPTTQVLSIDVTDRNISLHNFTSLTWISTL

Row | IC50 | SMILES
1 | Not Active | O=C(N/N=C/c1cccnc1)c1ccc(-c2nc3ccccc3s2)cc1
2 | Not Active | COC(=O)c1ccc(/C=N/NC(=O)c2ccc(-c3nc4ccccc4s3)cc2)cc1
3 | Not Active | COc1ccc(/C=N/NC(=O)c2ccc(-c3nc4ccccc4s3)cc2)cc1OC
4 | Not Active | COc1ccc(/C=N/NC(=O)c2ccc(-c3nc4ccccc4s3)cc2)cc1O
5 | Not Active | O=C(N/N=C/c1ccncc1)c1ccc(-c2nc3ccccc3s2)cc1
